Results from patent publication US20240382490A1, “QUINAZOLINE-THIOHYDANTOIN FUSED HETEROCYCLES WHICH ARE SUITABLE FOR TREATING, AMELIORATING OR PREVENTING A PROLIFERATIVE DISORDER” (FRIEDRICH-ALEXANDER-UNIVERSITÄT ERLANGEN NÜRNBERG, priority 2021, published 2024).
Read-outs that look alike come from different tables or passages of the source.

Assays:
wild-type CCRF CEM cells [1] = assay: IC50 in sensitive wild-type CCRF CEM leukemia cells; assay type: cell-based, human
[2] = system: multidrug resistant P glycoprotein-overexpressing CEM/ADR5000 cells; assay: IC50 in multidrug resistant CEM/ADR5000 leukemia cells; assay type: cell-based, human
healthy human cells = assay: IC50 in healthy cells (selectivity); assay type: cell-based; conditions: for IC50: healthy human cells; for Activity against healthy cells relative to CEM/ADR5000 cells: healthy cells IC50 compared with CEM/ADR5000 IC50
[3] = system: multidrug resistant P glycoprotein-overexpressing CEM/ADR5000 cells; conditions: previously reported (NPL-9, NPL-10), footnote calls them EC50; cited from earlier work
human fibroblasts = conditions: normal tissue cell line (human fibroblasts), NPL-11; read-out: Healthy cells IC50 (overall IC50 in human fibroblasts); cited from earlier work
wild-type CCRF CEM cells [4] = conditions: sensitive wild-type CCRF CEM cells; previously reported (NPL-9, NPL-10), footnote calls them EC50; cited from earlier work
K562 cells = assay: CellTiter-Blue cell viability assay, K562; assay type: cell-based; conditions: for IC50: five dose (0.01, 0.1, 1, 10, 100 μM) screening, 48 h treatment
Method: (§1) All leukemia cell lines (RPMI-8226, K562, HL-60, and MOLT-4) were obtained from NCI-DTP, NCI-Frederick, USA. Cells were cultured and maintained in RPMI-1640 (Corning, USA; #10-040-CV) media supplemented with 10% FBS (Corning, USA; #35-015-CV) and 1% penicillin-streptomycin-amphotericin B (GIBCO, USA; #15240-062) at 37° C. with 5% CO2. At 70 to 80% confluence cells were harvested and plated for cell viability assay.
(§2) Each leukemia cell line was plated at 3000 cells/well (in 100 μL complete media) in black-clear bottom 96-well plates (Corning, USA; #3603). After 24 h, cells were treated with respective compounds at one dose (10 μM) or five dose (0.01, 0.1, 1, 10, 100 μM) concentrations. After 48 h treatment, cell viability was recorded using CellTiter-Blue cell viability assay (Promega, USA; #G8081) as per the manufacturer's protocol.

HL-60 cells = assay: CellTiter-Blue cell viability assay, HL-60; assay type: cell-based; conditions: for IC50: five dose (0.01, 0.1, 1, 10, 100 μM) screening, 48 h treatment
Method: as §1, §2

RPMI-8226 cells = assay: CellTiter-Blue cell viability assay, RPMI-8226; assay type: cell-based; conditions: five dose (0.01, 0.1, 1, 10, 100 μM) screening, 48 h treatment
Method: as §1, §2

MOLT-4 cells = assay: CellTiter-Blue cell viability assay, MOLT-4; assay type: cell-based; conditions: five dose (0.01, 0.1, 1, 10, 100 μM) screening, 48 h treatment
Method: as §1, §2

[5] = system: human leukemia cell line (HAP1); assay: Cellular senescence in HAP1 cells; assay type: cell-based; conditions: mediated by oncogene Ras and downstream MAPK/pRb pathways, FIG. 4
Method: (§3) Quinazoline-thiohydantoin fused heterocycles 5g and 5k were to tested to determine whether they can inhibit MRTF-A nuclear localization to overcome resistance. First the localization of MRTF-A in a human leukemia cell line (HAP1) was analyzed. […] It was also tested whether 5g can activate cellular senescence.

MRTF-A = MRTF-A nuclear localization in HAP1 cells; assay type: cell-based; conditions: human leukemia cell line HAP1, FIG. 4
Method: as §3

human endometrium cells = conditions: NPL-12, read-out: Healthy cells IC50 (human endometrium cells); cited from earlier work
[6] = one dose (10 μM), 48 h, FIG. 5A

| Structure (SMILES) | IC50 (wild-type CCRF CEM cells [1]) | IC50 [2] | IC50 (healthy human cells) | further results |
| --- | --- | --- | --- | --- |
| CC(c1ccccc1)N1C(=O)C2=Nc3ccc(Cl)cc3CN2C1=S (stereo not drawn) [Compound 5e] | 0.375 ± 0.043 µM | 0.295 ± 0.083 µM | 2.4 ± 0.5 µM | – |
| COc1cccc2c1C(=O)c1c(O)c3c(c(O)c1C2=O)C[C@@](O)(C(=O)CO)C[C@@H]3O[C@H]1C[C@H](N)[C@H](O)[C@H](C)O1 [Doxorubicin, doxorubicin] | – | – | – | IC50 [3]: 23.3 µM; IC50 (human fibroblasts): 1.8 µM; IC50 (wild-type CCRF CEM cells [4]): 0.009 µM |
| O=C1C2=Nc3ccccc3CN2C(=S)N1c1ccc([N+](=O)[O-])cc1 [Compound 3a] | 27.8 ± 2.6 µM | 26.8 ± 1.67 µM | 19.8 ± 4.8 µM | – |
| C[C@H](c1ccccc1)N1C(=O)C2=Nc3cc([N+](=O)[O-])ccc3CN2C1=S [Compound 5d] | 0.14 ± 0.028 µM | 0.127 ± 0.019 µM | 2.5 ± 0.8 µM | Activity against healthy cells relative to CEM/ADR5000 cells (healthy human cells): fifteen to twenty times lower activity |
| COc1ccc2c(c1)CN1C(=S)N(C(C)c3ccccc3)C(=O)C1=N2 (stereo not drawn) [Compound 5k] | 1.53 ± 0.148 µM | 1.33 ± 0.247 µM | 1.9 ± 0.4 µM | IC50 (K562 cells): 24.7 ± 4.01 µM; IC50 (HL-60 cells): 41.1 ± 3.12 µM; IC50 (RPMI-8226 cells): 14 ± 2.43 µM; IC50 (MOLT-4 cells): 28.7 ± 2.08 µM |
| CC(c1ccccc1)N1C(=O)C2=Nc3cccc(Cl)c3CN2C1=S (stereo not drawn) [Compound 5g] | 0.125 ± 0.024 µM | 0.146 ± 0.015 µM | 2.8 ± 0.6 µM | IC50 (K562 cells): 7.8 ± 0.63 µM; One dose cell viability screening, K562 (K562 cells; [6]): more active compared to 5k; Activity against healthy cells relative to CEM/ADR5000 cells (healthy human cells): fifteen to twenty times lower activity; IC50 (HL-60 cells): 9.9 ± 0.71 µM; One dose cell viability screening, HL-60 (HL-60 cells; [6]): more active compared to 5k; IC50 (RPMI-8226 cells): 15 ± 1.39 µM; Activation of cellular senescence [5]: able to provoke a senescence response; IC50 (MOLT-4 cells): 18.5 ± 2.17 µM; Effect on MRTF-A nuclear localization (MRTF-A): efficiently increased cytoplasmic MRTF-A nuclear localization |
| C[C@@H]1CC[C@H]2[C@@H](C)C(=O)O[C@@H]3O[C@@]4(C)CC[C@@H]1[C@]32OO4 [Artemisinin, artemisinin] | – | – | – | IC50 [3]: 26.9 ± 4.4 µM; IC50 (human endometrium cells): 69.6 µM; IC50 (wild-type CCRF CEM cells [4]): 36.9 ± 6.9 µM |
| COc1cccc(N2C(=O)C3=Nc4ccccc4CN3C2=S)c1 [Compound 3j] | 28.1 ± 0.831 µM | 28.1 ± 0.972 µM | 42.8 ± 6.1 µM | – |
| CC(C)c1cccc(C(C)C)c1N1C(=O)C2=Nc3ccccc3CN2C1=S [Compound 3l] | 25.1 ± 6.49 µM | 19.1 ± 7.1 µM | 30.5 ± 0.5 µM | – |
| CC(c1ccccc1)N1C(=O)C2=Nc3ccc(Br)cc3CN2C1=S (stereo not drawn) [Compound 5a] | 0.483 ± 0.025 µM | 0.409 ± 0.028 µM | 2.2 ± 0.2 µM | – |
| CC(c1ccccc1)N1C(=O)C2=Nc3cc(Cl)ccc3CN2C1=S (stereo not drawn) [Compound 5f] | 0.228 ± 0.022 µM | 0.156 ± 0.013 µM | 2.3 ± 0.7 µM | Activity against healthy cells relative to CEM/ADR5000 cells (healthy human cells): fifteen to twenty times lower activity |
